Assay [1] concerns the target HA-GST-Rheb (GTP-γ-S loaded) activating mTORC1 (Homo sapiens (Human), UniProt Q15382). The experiment in a line: Rheb-dependent in vitro kinase assay (Rheb-IVK; LanthaScreen or Western readout). Format: biochemical. The note with it: Rheb-dependent in vitro kinase assay; read-out: IVK IC50.
In another assay the target is Rheb (Homo sapiens (Human), UniProt Q15382). The experiment in a line: Affinity Selection Mass Spectrometry (ASMS). The note with it: affinity (R3/R0) in Affinity Selection Mass Spectrometry assay. Format: binding. An outline of the steps: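 Affinity selection used 2 μM compound with 60 μM Rheb and 180 μM GDP for 30 min at room temperature. After 10 kDa ultrafiltration washes, protein was denatured in MeCN and bound compound quantified by C18 UPLC with Q-TOF MS, against a no-protein control.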
Chain of Rheb (Q15382 1-169 limits assumed): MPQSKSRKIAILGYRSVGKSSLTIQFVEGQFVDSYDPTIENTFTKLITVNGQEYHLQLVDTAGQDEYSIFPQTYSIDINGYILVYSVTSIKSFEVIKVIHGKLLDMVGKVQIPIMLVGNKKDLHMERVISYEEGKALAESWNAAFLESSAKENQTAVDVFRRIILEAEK

Chain of HA-GST-Rheb (GTP-γ-S loaded) activating mTORC1 (Q15382 1-181): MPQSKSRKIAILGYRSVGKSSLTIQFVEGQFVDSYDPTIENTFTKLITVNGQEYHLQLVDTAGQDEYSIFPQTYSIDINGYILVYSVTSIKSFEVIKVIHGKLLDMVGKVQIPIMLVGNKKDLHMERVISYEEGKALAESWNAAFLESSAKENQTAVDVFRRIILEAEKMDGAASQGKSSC

On to `OCc1nc2c(OC[C@H]3CNCC[C@@H]3O)c(Cl)c(Cl)cc2[nH]1` (racemic) [I-385], for which the IC50 in assay [1] is > 100 µM. Moreover, the “ASMS (R3/R0)” value at Rheb was “C (an affinity (R3/R0)<20%)”.
The matching figures for `OCc1cc2c(F)cc(Oc3ccccc3)cc2[nH]1` [I-249, (4-fluoro-6-phenoxy-1H-indol-2-yl)methanol]: 10 to 100 µM and “C (an affinity (R3/R0)<20%)”.
For `O=C(O)c1cc2c(Sc3ccc(Cl)cc3Cl)cc(Cl)cc2[nH]1` [I-157, 6-chloro-4-(2,4-dichlorophenylthio)-1H-indole-2-carboxylic acid], the IC50 in assay [1] was < 10 µM. Further, at Rheb, the “ASMS (R3/R0)” value is “B (an affinity (R3/R0) between 100% and 20%)”.
On to `CC(C)(C)OC(=O)c1ccc(Cn2c(-c3ccncc3)nc3cc(Cl)c(Cl)cc32)cc1` [I-374], for which the half-maximal inhibitory concentration (IC50) in assay [1] is > 100 µM. In addition, the “ASMS (R3/R0)” value at Rheb was “C (an affinity (R3/R0)<20%)”.
For `O=C(NCCN1CCN(c2ccccc2)CC1)c1cc2c(Sc3ccc(Cl)cc3Cl)cc(Cl)cc2[nH]1` [I-119], in assay [1], the half-inhibitory concentration (IC50) is > 100 µM. In addition, the “ASMS (R3/R0)” value at Rheb was “B (an affinity (R3/R0) between 100% and 20%)”.
For `CC(C)(C)OC(=O)c1ccc(Cn2c(C(=O)O)cc3c(Br)cc(Oc4ccccc4)cc32)cc1` [I-167, 4-bromo-1-(4-(tert-butoxycarbonyl)benzyl)-6-phenoxy-1H-indole-2-carboxylic acid], the IC50 in assay [1] was < 10 µM. Moreover, on Rheb, the “ASMS (R3/R0)” value was “B (an affinity (R3/R0) between 100% and 20%)”.
Take `Clc1cc2nc(-c3ccc(-c4ccncc4)cc3)[nH]c2cc1Cl` [I-372]: the IC50 in assay [1] is > 100 µM. The “ASMS (R3/R0)” value on Rheb is “A (an affinity (R3/R0)>100%)”.
Turning to `CN(C)C(=O)c1ccc(Cn2c(C(=O)O)cc3c(Br)cc(SCc4ccc(Cl)c(Cl)c4)cc32)cc1` [I-18], the IC50 in assay [1] was > 100 µM. On Rheb, the “ASMS (R3/R0)” value is “B (an affinity (R3/R0) between 100% and 20%)”.
Regarding `Clc1cc2[nH]c(-c3ccncc3)nc2c(OCC2CCCCC2)c1Cl` [I-348], the IC50 in assay [1] is > 100 µM. Further, at Rheb, the “ASMS (R3/R0)” value was “B (an affinity (R3/R0) between 100% and 20%)”.
In the case of `Clc1cc2nc(-c3ccc(-c4nn[nH]n4)cc3)[nH]c2cc1Cl` [I-344], the IC50 in assay [1] is > 100 µM. Further, the “ASMS (R3/R0)” value at Rheb was “A (an affinity (R3/R0)>100%)”.
The like results for `O=C1CCC(CNC(=O)c2cc3c(Sc4ccc(Cl)cc4)cc(Cl)cc3[nH]2)N1` (stereo not drawn) [I-147] were, in that order, > 100 µM and “A (an affinity (R3/R0)>100%)”.
Turning to `O=C(O)c1cc2c(Sc3ccc(Cl)cc3)cc(Cl)c(Cl)c2[nH]1` [I-73, 6,7-dichloro-4-(4-chlorophenylthio)-1H-indole-2-carboxylic acid], the IC50 in assay [1] is < 10 µM. Also, the “ASMS (R3/R0)” value at Rheb was “A (an affinity (R3/R0)>100%)”.
Consider `CN(C)C(=O)c1ccc(Cn2c(C(=O)O)cc3ccc(Sc4ccc(Oc5ccccc5)cc4)cc32)cc1` [I-17, 1-(4-(dimethylcarbamoyl)benzyl)-6-(4-phenoxyphenylthio)-1H-indole-2-carboxylic acid], for which the IC50 in assay [1] is < 10 µM. The “ASMS (R3/R0)” value at Rheb was “B (an affinity (R3/R0) between 100% and 20%)”.
For `O=C(O)c1cc2c(Sc3ccc(F)c(F)c3)cc(Cl)cc2[nH]1` [I-155, 6-chloro-4-(3,4-difluorophenylthio)-1H-indole-2-carboxylic acid], in assay [1], the IC50 was 10 to 100 µM. The “ASMS (R3/R0)” value on Rheb was “B (an affinity (R3/R0) between 100% and 20%)”.
Consider `Clc1ccc2[nH]ccc2c1Oc1ccccc1` [I-257, 5-chloro-4-phenoxy-1H-indole], for which, in assay [1], the IC50 was 10 to 100 µM. Besides, at Rheb, the “ASMS (R3/R0)” value is “C (an affinity (R3/R0)<20%)”.
As to `CC(C)(C)OC(=O)c1ccc(Cn2c(C(=O)O)cc3c(Br)cc(Sc4ccc(Cl)c(Cl)c4)cc32)cc1` [I-109, 4-Bromo-1-(4-(tert-butoxycarbonyl)benzyl)-6-(3,4-dichlorophenylthio)-1H-indole-2-carboxylic acid], in assay [1], the IC50 lay within 10 to 100 µM. For the same molecule, the “ASMS (R3/R0)” value at Rheb was “B (an affinity (R3/R0) between 100% and 20%)”.
Consider `CC(C)(C)OC(=O)c1ccc(Cn2c(C(=O)O)cc3c(Cl)cc(Sc4ccc(Cl)c(Cl)c4)cc32)cc1` [I-95, 1-(4-(tert-butoxycarbonyl)benzyl)-4-chloro-6-(3,4-dichlorophenylthio)-1H-indole-2-carboxylic acid], for which the IC50 in assay [1] fell in the range of 10 to 100 µM. Moreover, the “ASMS (R3/R0)” value at Rheb is “B (an affinity (R3/R0) between 100% and 20%)”.
“5,6-dichloro-4-(4-chlorobenzyloxy)-1H-benzo[d]imidazole-2-carboxylic acid [I-330]”: in assay [1], the IC50 is > 100 µM. Further, the “ASMS (R3/R0)” value on Rheb was “B (an affinity (R3/R0) between 100% and 20%)”.
With `OCc1nc2cc(Cl)c(SCc3ccc(Cl)cc3Cl)cc2[nH]1` [I-361, (5-chloro-6-(2,4-dichlorobenzylthio)-1H-benzo[d]imidazol-2-yl)methanol], the IC50 in assay [1] was 100 to 300 µM. For the same molecule, at Rheb, the “ASMS (R3/R0)” value was “B (an affinity (R3/R0) between 100% and 20%)”.
Turning to `OCc1cc2c(Oc3ccc(Cl)cc3)cccc2[nH]1` [I-263, (4-(4-chlorophenoxy)-1H-indol-2-yl)methanol], the IC50 in assay [1] fell in the range of 10 to 100 µM. Besides, the “ASMS (R3/R0)” value at Rheb was “C (an affinity (R3/R0)<20%)”.
As to `Clc1ccc(Cl)c(Oc2cccc3[nH]ccc23)c1` [I-251, 4-(2,5-Dichlorophenoxy)-1H-indole], the IC50 in assay [1] fell in the range of 10 to 100 µM. For the same molecule, at Rheb, the “ASMS (R3/R0)” value is reported as “C (an affinity (R3/R0)<20%)”.
Regarding `CN1CCC(CNC(=O)c2nc3cc(OCc4ccc(Cl)cc4)c(Cl)c(Cl)c3[nH]2)CC1` [I-337, 6,7-dichloro-5-(4-chlorobenzyloxy)-N-((1-methylpiperidin-4-yl)methyl)-1H-benzo[d]imidazole-2-carboxamide], the half-inhibitory concentration (IC50) in assay [1] was > 3 µM. Further, at Rheb, the “ASMS (R3/R0)” value is “B (an affinity (R3/R0) between 100% and 20%)”.
Turning to `O=C(O)c1cc2c(Oc3cccc4cnccc34)cc(Cl)cc2[nH]1` [I-41, 6-chloro-4-(isoquinolin-5-yloxy)-1H-indole-2-carboxylic acid], in assay [1], the IC50 is 100 to 300 µM. Moreover, the “ASMS (R3/R0)” value at Rheb was “C (an affinity (R3/R0)<20%)”.
Consider `O=C(O)c1cc2c(Oc3ccc(C4CCCCC4)cc3)cc(Cl)cc2[nH]1` [I-125, 6-chloro-4-(4-cyclohexylphenoxy)-1H-indole-2-carboxylic acid], for which, in assay [1], the IC50 is < 10 µM. Besides, on Rheb, the “ASMS (R3/R0)” value is “B (an affinity (R3/R0) between 100% and 20%)”.
`OCc1cc2c(Br)cc(Sc3ccc(Cl)c(Cl)c3)cc2[nH]1` [I-133, (4-bromo-6-(3,4-dichlorophenylthio)-1H-indol-2-yl)methanol]: the IC50 in assay [1] is < 10 µM. Besides, the “ASMS (R3/R0)” value on Rheb is “B (an affinity (R3/R0) between 100% and 20%)”.
For the molecule `O=C(O)c1cc2c(Sc3ccc(Cl)cc3Cl)cc(Cl)cc2n1Cc1ccc(-c2cccc(CO)c2)cc1` [I-72, 6-chloro-4-(2,4-dichlorophenylthio)-1-((3′-(hydroxymethyl)biphenyl-4-yl)methyl)-1H-indole-2-carboxylic acid], in assay [1], the IC50 is < 10 µM. Besides, on Rheb, the “ASMS (R3/R0)” value was “B (an affinity (R3/R0) between 100% and 20%)”.
With `O=C(O)c1cc2c(Sc3ccc(Cl)c(Cl)c3)cc(Sc3ccc(Cl)c(Cl)c3)cc2[nH]1` [I-88, 4,6-bis(3,4-dichlorophenylthio)-1H-indole-2-carboxylic acid], the IC50 in assay [1] is < 10 µM. In addition, the “ASMS (R3/R0)” value on Rheb is “B (an affinity (R3/R0) between 100% and 20%)”.
`OCc1nc2cc(OCc3ccccc3)c(Cl)cc2n1Cc1ccc(-c2nnn[nH]2)cc1` [I-437, (1-(4-(1H-tetrazol-5-yl)benzyl)-5-(benzyloxy)-6-chloro-1H-benzo[d]imidazol-2-yl)methanol]: in assay [1], the IC50 was > 3 µM. Moreover, at Rheb, the “ASMS (R3/R0)” value is on record as “C (an affinity (R3/R0)<20%)”.
On to `O=C(O)c1ccc(Cn2ccc3c(Br)cc(Oc4ccccc4)cc32)cc1` [I-164, 4-((4-bromo-6-phenoxy-1H-indol-1-yl)methyl)benzoic acid], for which the IC50 in assay [1] was 10 to 100 µM. Moreover, at Rheb, the “ASMS (R3/R0)” value was “B (an affinity (R3/R0) between 100% and 20%)”.
For the molecule `O=C(O)Cn1c(-c2ccnc3[nH]ccc23)nc2c(Sc3ccc(Cl)cc3)c(Cl)ccc21` [I-322], the IC50 in assay [1] is > 100 µM. The “ASMS (R3/R0)” value at Rheb is “C (an affinity (R3/R0)<20%)”.
`Clc1ccc(Sc2cc(Cl)cc3[nH]ccc23)cc1` [I-180, 6-chloro-4-(4-chlorophenylthio)-1H-indole]: in assay [1], the IC50 is 10 to 100 µM. Also, the “ASMS (R3/R0)” value on Rheb was “B (an affinity (R3/R0) between 100% and 20%)”.
Take `Cn1ccc2c(Nc3ccccc3)cccc21` [I-299]: in assay [1], the half-inhibitory concentration (IC50) was > 100 µM. Further, at Rheb, the “ASMS (R3/R0)” value is reported as “C (an affinity (R3/R0)<20%)”.
Take `Clc1ccc(Cl)c(Sc2cccc3[nH]ccc23)c1` [I-209, 4-(2,5-dichlorophenylthio)-1H-indole]: the concentration for half-maximal inhibition (IC50) in assay [1] was 10 to 100 µM. Also, the “ASMS (R3/R0)” value at Rheb was “B (an affinity (R3/R0) between 100% and 20%)”.
Turning to `Clc1cccc(Oc2cc(Cl)cc3[nH]ccc23)c1` [I-208, 6-chloro-4-(3-chlorophenoxy)-1H-indole], the IC50 in assay [1] fell in the range of 10 to 100 µM. At Rheb, the “ASMS (R3/R0)” value was “B (an affinity (R3/R0) between 100% and 20%)”.
For the molecule `CN(C)C(=O)c1ccc(Cn2c(C(=O)O)cc3c(Br)cc(SCCc4ccc(Cl)c(Cl)c4)cc32)cc1` [I-25, 4-bromo-6-(3,4-dichlorophenethylthio)-1-(4-(dimethylcarbamoyl)benzyl)-1H-indole-2-carboxylic acid], the IC50 in assay [1] was < 10 µM. In addition, the “ASMS (R3/R0)” value at Rheb is “B (an affinity (R3/R0) between 100% and 20%)”.
On to `Clc1cc2nc(-c3ncco3)n(Cc3ccc(-c4nn[nH]n4)cc3)c2cc1Cl` [I-489, 2-(1-(4-(2H-tetrazol-5-yl)benzyl)-5,6-dichloro-1H-benzo[d]imidazol-2-yl)oxazole], for which, in assay [1], the IC50 fell in the range of 100 to 300 µM. For the same molecule, the “ASMS (R3/R0)” value on Rheb was “C (an affinity (R3/R0)<20%)”.

The values are drawn from patent publication US11339144B2 (Navitor Pharmaceuticals, Inc., priority 2017, dated 2022).
